Test results reported in PMC6667453, “Opportunistic complexes of E. coli L-asparaginases with citrate anions” (Scientific Reports, 2019).
Counter-ions that a name gives are not always drawn.

Assays:
Assay type in all cases: binding
[1] = molecular target: T1, EcAI (AnsA), type I L-asparaginase from E. coli (Escherichia coli, UniProt P0A962); assay: X-ray crystal structure, re-refined from deposited data (2p2n); conditions: pH about 4.0 (0.1 M citrate, 1 M NaCl); covalent, acyl-enzyme ester to Thr14 OG1 in active site; re-interpretation of ligand first modelled as L-Asp/L-Asn
T1 construct: four protomers (two dimers) in the asymmetric unit
T1 sequence (P0A962 1-338): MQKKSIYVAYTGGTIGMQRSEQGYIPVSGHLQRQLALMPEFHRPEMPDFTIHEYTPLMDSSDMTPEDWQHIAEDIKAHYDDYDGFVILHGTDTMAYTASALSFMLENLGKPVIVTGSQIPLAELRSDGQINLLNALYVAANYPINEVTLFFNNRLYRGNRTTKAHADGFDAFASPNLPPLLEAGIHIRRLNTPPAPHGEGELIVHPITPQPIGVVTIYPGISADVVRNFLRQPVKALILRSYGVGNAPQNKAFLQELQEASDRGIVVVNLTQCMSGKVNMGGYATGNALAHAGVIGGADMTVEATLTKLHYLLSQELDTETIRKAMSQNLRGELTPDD

[2] = molecular target: T2, EcAII, type II L-asparaginase from Escherichia coli (Escherichia coli, UniProt P00805, D112T/K184T); assay: X-ray crystal structure; conditions: pH 5.0 (also pH 5.6, 6nx7; pH 6.2, 6nx8), 0.17 M citrate, 10 mM L-Asn, 293 K; non-covalent, one of two active sites (protomer B); stabilised by His6-tag of symmetry mate, called an artifact
T2 construct: gene ansB; Met-(His)6-EcAII, N-terminal tag kept; secreted from E. coli triple asparaginase knockout
T2 sequence (P00805 23-348 D112T/K184T): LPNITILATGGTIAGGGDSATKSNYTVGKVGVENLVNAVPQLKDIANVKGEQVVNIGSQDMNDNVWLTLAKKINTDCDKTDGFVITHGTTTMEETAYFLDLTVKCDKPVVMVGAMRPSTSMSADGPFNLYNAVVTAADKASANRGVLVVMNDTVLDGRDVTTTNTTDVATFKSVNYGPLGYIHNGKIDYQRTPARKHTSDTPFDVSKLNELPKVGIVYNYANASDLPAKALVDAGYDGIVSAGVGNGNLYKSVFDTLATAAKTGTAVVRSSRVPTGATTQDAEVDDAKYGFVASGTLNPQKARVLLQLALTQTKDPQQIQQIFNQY

[3] = molecular target: T3, EcAII, type II L-asparaginase from Escherichia coli (Escherichia coli, UniProt P00805); assay: intact-protein LC/MS (electrospray); conditions: pH 4.0, 200 mM citrate; no L-Asp; covalent (addition of citrate minus water)
T3 construct: gene ansB; Met-(His)6-EcAII, N-terminal tag kept; secreted from E. coli triple asparaginase knockout
T3 sequence (P00805 23-348): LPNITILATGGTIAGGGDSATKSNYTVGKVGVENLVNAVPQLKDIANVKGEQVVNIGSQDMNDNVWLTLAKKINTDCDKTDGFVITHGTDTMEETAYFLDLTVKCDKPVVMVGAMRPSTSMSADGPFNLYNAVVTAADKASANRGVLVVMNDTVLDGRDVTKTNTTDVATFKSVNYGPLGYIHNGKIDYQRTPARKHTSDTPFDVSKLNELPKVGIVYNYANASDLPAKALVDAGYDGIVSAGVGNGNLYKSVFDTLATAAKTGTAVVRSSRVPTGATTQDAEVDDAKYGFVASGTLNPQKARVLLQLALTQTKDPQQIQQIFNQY

[4] = molecular target: T3, EcAII, type II L-asparaginase from Escherichia coli; assay: X-ray crystal structure; conditions: pH 7.0, 0.17 M ammonium citrate, 17% PEG3350, 100 K; non-covalent, all four active sites

For O=C(O)CC(O)(CC(=O)O)C(=O)O [CIT, citrate], the “X-ray crystal structure, re-refined from deposited data (2p2n)” value [1] was “substitution by citrate anions covalently linked to the side chain of Thr14”, the X-ray crystal structure [2] was “maps indicated clearly the presence of a citrate anion in this site” and the “% abundance of adduct (+174.0) at 200 mM citrate” value [3] was 38.1%. The X-ray crystal structure [4] was “The shape of this peak could be unambiguously interpreted as a citrate anion”.
